Patent US20230357239A1, “PYRIDO[2,3-D]PYRIMIDIN-4-AMINES AS SOS1 INHIBITORS” (Bayer Aktiengesellschaft, priority 2020, published 2023)

Target: human SOS1 (SOS1) with human K-RasG12C (Homo sapiens (Human), UniProt Q07889)
Assay: hK-RasG12C interaction assay with hSOS1 (HTRF)
Assay type: binding
Conditions: GST-hK-RasG12C and His-hSOS1, 60 min incubation at 20° C, mean, read-out: K-RasG12C - SOS interaction assay IC50 - [mol/l] (mean)
Method: Biochemical Assay: hK-RasG12C Interaction Assay with hSOS1
This assay quantifies the equilibrium interaction of human SOS1 (SOS1) with human K-Ras^G12C (K-RasG12C). Detection of the interaction is achieved by measuring homogenous time-resolved fluorescence resonance energy transfer (HTRF) from antiGST-Europium (FRET donor) bound to GST-K-RasG12C to anti-6His-XL665 bound to His-tagged hSOS1 (FRET-acceptor).
The assay buffer containes 5 mM HEPES pH 7.4 (Applichem), 150 mM NaCl (Sigma), 10 mM EDTA (Promega), 1 mM DTT (Thermofisher), 0.05% BSA Fraction V, pH 7.0, (ICN Biomedicals), 0.0025% (v/v) Igepal (Sigma) and 100 mM KF (FLUKA).
Concentrations of protein batches used are optimized to be within the linear range of the HTRF signal. A Ras working solution is prepared in assay buffer containing typically 10 nM GST-hK-RasG12C and 2 nM antiGST-Eu(K) (Cisbio, France). A SOS1 working solution is prepared in assay buffer containing typically 20 nM His-hSOS1 and 10 nM anti-6His-XL665 (Cisbio, France). An inhibitor control solution is prepared in assay buffer containing 10 nM anti-6His-XL665 without SOS1.
Fifty nl of a 100-fold concentrated solution of the test compound in DMSO are transferred into a black microtiter test plate (384 or 1536, Greiner Bio-One, Germany).
For this, either a Hummingbird liquid handler (Digilab, MA, USA) or an Echo acoustic system (Labcyte, CA, USA) is used.
All steps of the assay are performed at 20° C. A volume of 2.5 μl of the Ras working solution is added to all wells of the test plate using a Multidrop dispenser (Thermo Labsystems). After 2 min preincubation, 2.5 μl of the SOS1 working solution are added to all wells except for those wells at the side of the test plate that are subsequently filled with 2.5 μl of the inhibitor control solution. After 60 min incubation the fluorescence is measured with a Pherastar (BMG, Germany) using the HTRF module (excitation 337 nm, emission 1: 620 nm, emission 2: 665 nm).
The ratiometric data (emission 2 divided by emission 1) are normalized using the controls (DMSO=0% inhibition, inhibition control wells with inhibitor control solution=100% inhibition). […] IC50 values are calculated by 4-Parameter fitting using a commercial software package (Genedata Screener, Switzerland).

human SOS1 (SOS1) with human K-RasG12C, sequence (Q07889 564-1049): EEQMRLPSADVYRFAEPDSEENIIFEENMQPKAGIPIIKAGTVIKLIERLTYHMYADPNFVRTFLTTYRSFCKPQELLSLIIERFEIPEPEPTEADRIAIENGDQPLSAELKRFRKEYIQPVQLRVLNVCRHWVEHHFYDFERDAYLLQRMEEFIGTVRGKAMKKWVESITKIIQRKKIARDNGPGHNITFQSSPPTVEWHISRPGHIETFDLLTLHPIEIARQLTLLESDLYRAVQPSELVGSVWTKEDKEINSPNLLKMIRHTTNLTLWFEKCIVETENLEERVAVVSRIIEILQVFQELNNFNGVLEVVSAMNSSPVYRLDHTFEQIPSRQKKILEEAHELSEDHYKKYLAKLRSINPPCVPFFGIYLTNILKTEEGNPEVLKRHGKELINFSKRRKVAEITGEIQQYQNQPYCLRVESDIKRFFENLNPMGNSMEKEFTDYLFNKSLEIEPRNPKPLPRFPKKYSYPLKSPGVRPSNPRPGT

Row | SMILES | IC50 [µM]
1 | C[C@@H](Nc1ncnc2ncc(Br)cc12)c1cccc(C(F)(F)F)c1 [Example 1, 6-bromo-N-{(1R)-1-[3-(trifluoromethyl)phenyl]ethyl}pyrido[2,3-d]pyrimidin-4-amine] | 0.409
2 | CC(=O)N1CC=C(c2cnc3ncnc(N[C@H](C)c4cccc(C(F)(F)F)c4)c3c2)CC1 [Example 5, 1-{4-[4-({(1R)-1-[3-(trifluoromethyl)phenyl]ethyl}amino)pyrido[2,3-d]pyrimidin-6-yl]-3,6-dihydropyridin-1(2H)-yl}ethan-1-one] | 0.00424
3 | Cc1nc(N[C@H](C)c2cccc(C(F)(F)F)c2C)c2cc(Br)cnc2n1 [Example 6, 6-bromo-2-methyl-N-{(1R)-1-[2-methyl-3-(trifluoromethyl)phenyl]ethyl}pyrido[2,3-d]pyrimidin-4-amine] | 0.251
4 | CC(=O)N1CCN(S(=O)(=O)c2cnc3nc(C)nc(N[C@H](C)c4cccc(C(F)(F)F)c4C)c3c2)CC1 [Example 17, 1-{4-[2-methyl-4-({(1R)-1-[2-methyl-3-(trifluoromethyl)phenyl]ethyl}amino)pyrido[2,3-d]pyrimidine-6-sulfonyl]piperazin-1-yl}ethan-1-one] | 0.00356
5 | CC(=O)N1CCN(c2cc3c(N[C@H](C)c4cccc(C(F)(F)F)c4C)nc(C)nc3nc2C)CC1 [Example 19, 1-{4-[2,7-dimethyl-4-({(1R)-1-[2-methyl-3-(trifluoromethyl)phenyl]ethyl}amino)pyrido[2,3-d]pyrimidin-6-yl]piperazin-1-yl}ethan-1-one] | 0.00825
6 | COc1nc2nc(C)nc(N[C@H](C)c3cccc(C(F)(F)F)c3C)c2cc1N1CC2(CN(C(C)=O)C2)C1 [Example 20, 1-{6-[7-methoxy-2-methyl-4-({(1R)-1-[2-methyl-3-(trifluoromethyl)phenyl]ethyl}amino)pyrido[2,3-d]pyrimidin-6-yl]-2,6-diazaspiro[3.3]heptan-2-yl}ethan-1-one] | 0.348
7 | COc1nc2nc(C)nc(N[C@H](C)c3cccc(C(F)(F)F)c3C)c2cc1C1=CCN(C(C)=O)CC1 [Example 21, 1-{4-[7-methoxy-2-methyl-4-({(1R)-1-[2-methyl-3-(trifluoromethyl)phenyl]ethyl}amino)pyrido[2,3-d]pyrimidin-6-yl]-3,6-dihydropyridin-1(2H)-yl}ethan-1-one] | 0.949
8 | COc1nc2nc(C)nc(N[C@H](C)c3cccc(C(F)(F)F)c3C)c2cc1C1CCN(C(C)=O)CC1 [Example 22, 1-{4-[7-methoxy-2-methyl-4-({(1R)-1-[2-methyl-3-(trifluoromethyl)phenyl]ethyl}amino)pyrido[2,3-d]pyrimidin-6-yl]piperidin-1-yl}ethan-1-one] | 0.805
9 | COc1nc2nc(C)nc(N[C@H](C)c3cccc(C(F)(F)F)c3C)c2cc1N1CCCS1(=O)=O [Example 23, 2-[7-methoxy-2-methyl-4-({(1R)-1-[2-methyl-3-(trifluoromethyl)phenyl]ethyl}amino)pyrido[2,3-d]pyrimidin-6-yl]-1 lambda^6,2-thiazolidine-1,1-dione] | 2.64
10 | CC(=O)N1CC2(C1)CN(c1cc3c(N[C@H](C)c4cccc(C(F)(F)CO)c4F)nc(C)nc3nc1C(F)(F)F)C2 [Example 24, 1-{6-[4-({(1R)-1-[3-(1,1-difluoro-2-hydroxyethyl)-2-fluorophenyl]ethyl}amino)-2-methyl-7-(trifluoromethyl)pyrido[2,3-d]pyrimidin-6-yl]-2,6-diazaspiro[3.3]heptan-2-yl}ethan-1-one] | 0.0028

Other lines, results leading:

Row | IC50 [µM] | SMILES
11 | 0.0119 | CC(=O)N1CCC(c2cnc3nc(C)nc(N[C@H](C)c4cccc(C(F)(F)F)c4C)c3c2)C1 (mixture of isomers) [Example 31, 1-{(3RS)-3-[2-methyl-4-({(1R)-1-[2-methyl-3-(trifluoromethyl)phenyl]ethyl}amino)pyrido[2,3-d]pyrimidin-6-yl]pyrrolidin-1-yl}ethan-1-one]
12 | 0.034 | CC(=O)N[C@@H]1CCN(c2cnc3ncnc(N[C@H](C)c4cccc(C(F)(F)F)c4)c3c2)C1 [Example 2, N-{(3R)-1-[4-({(1R)-1-[3-(trifluoromethyl)phenyl]ethyl}amino)pyrido[2,3-d]pyrimidin-6-yl]pyrrolidin-3-yl}acetamide]
13 | 0.0139 | C[C@@H](Nc1ncnc2ncc(N3CCN(C)CC3)cc12)c1cccc(C(F)(F)F)c1 [Example 3, 6-(4-methylpiperazin-1-yl)—N-{(1R)-1-[3-(trifluoromethyl)phenyl]ethyl}pyrido[2,3-d]pyrimidin-4-amine]
14 | 0.0163 | CC(=O)N1CCN(c2cnc3ncnc(N[C@H](C)c4cccc(C(F)(F)F)c4)c3c2)CC1 [Example 4, 1-{4-[4-({(1R)-1-[3-(trifluoromethyl)phenyl]ethyl}amino)pyrido[2,3-d]pyrimidin-6-yl]piperazin-1-yl}ethan-1-one]
15 | 0.18 | Cc1nc(N[C@H](C)c2cccc(C(F)(F)F)c2C)c2cc(N3CC4(CN(C(=O)OC(C)(C)C)C4)C3)cnc2n1 [Example 7, tert-butyl 6-[2-methyl-4-({(1R)-1-[2-methyl-3-(trifluoromethyl)phenyl]ethyl}amino)pyrido[2,3-d]pyrimidin-6-yl]-2,6-diazaspiro[3.3]heptane-2-carboxylate]
16 | 0.0157 | CC(=O)N1CC2(C1)CN(c1cnc3nc(C)nc(N[C@H](C)c4cccc(C(F)(F)F)c4C)c3c1)C2 [Example 8, 1-{6-[2-methyl-4-({(1R)-1-[2-methyl-3-(trifluoromethyl)phenyl]ethyl}amino)pyrido[2,3-d]pyrimidin-6-yl]-2,6-diazaspiro[3.3]heptan-2-yl}ethan-1-one]
17 | 0.0643 | CC(=O)N1CCC(c2cnc3ncnc(N[C@H](C)c4cccc(C(F)(F)F)c4)c3c2)CC1 [Example 9, 1-{4-[4-({(1R)-1-[3-(trifluoromethyl)phenyl]ethyl}amino)pyrido[2,3-d]pyrimidin-6-yl]piperidin-1-yl}ethan-1-one]
18 | 0.00355 | CC(=O)N1CCN(c2cnc3ncnc(N[C@H](C)c4cccc(C(F)(F)F)c4C)c3c2)CC1 [Example 10, 1-{4-[4-({(1R)-1-[2-methyl-3-(trifluoromethyl)phenyl]ethyl}amino)pyrido[2,3-d]pyrimidin-6-yl]piperazin-1-yl}ethan-1-one]
19 | 0.0176 | CC(=O)N[C@@H]1CCN(c2cnc3ncnc(N[C@H](C)c4cccc(C(F)(F)F)c4C)c3c2)C1 [Example 11, N-{(3R)-1-[4-({(1R)-1-[2-methyl-3-(trifluoromethyl)phenyl]ethyl}amino)pyrido[2,3-d]pyrimidin-6-yl]pyrrolidin-3-yl}acetamide]
20 | 0.00406 | CC(=O)N1CC=C(c2cnc3ncnc(N[C@H](C)c4cccc(C(F)(F)F)c4C)c3c2)CC1 [Example 12, 1-{4-[4-({(1R)-1-[2-methyl-3-(trifluoromethyl)phenyl]ethyl}amino)pyrido[2,3-d]pyrimidin-6-yl]-3,6-dihydropyridin-1(2H)-yl}ethan-1-one]
21 | 0.00635 | CC(=O)N1CC2(C1)CN(c1cnc3nc(C)nc(N[C@H](C)c4cccc(C(F)(F)F)c4C)c3c1)C2 [Example 13, 1-{6-[2-methyl-4-({(1R)-1-[2-methyl-3-(trifluoromethyl)phenyl]ethyl}amino)pyrido[2,3-d]pyrimidin-6-yl]-2,6-diazaspiro[3.3]heptan-2-yl}ethan-1-one-hydrogen chloride (1/1)]
22 | 0.00515 | CC(=O)N1C[C@@H]2C[C@H]1CN2c1cnc2nc(C)nc(N[C@H](C)c3cccc(C(F)(F)F)c3C)c2c1 [Example 14, 1-{(1S,4S)-5-[2-methyl-4-({(1R)-1-[2-methyl-3-(trifluoromethyl)phenyl]ethyl}amino)pyrido[2,3-d]pyrimidin-6-yl]-2,5-diazabicyclo[2.2.1]heptan-2-yl}ethan-1-one]
23 | 0.0106 | Cc1nc(N[C@H](C)c2cccc(C(F)(F)F)c2C)c2cc(N3CCN(C)CC3)cnc2n1 [Example 15, 2-methyl-6-(4-methylpiperazin-1-yl)—N-{(1R)-1-[2-methyl-3-(trifluoromethyl)phenyl]ethyl}pyrido[2,3-d]pyrimidin-4-amine]
24 | 0.0175 | CC(=O)N[C@@H]1CCN(c2cnc3nc(C)nc(N[C@H](C)c4cccc(C(F)(F)F)c4C)c3c2)C1 [Example 16, N-{(3R)-1-[2-methyl-4-({(1R)-1-[2-methyl-3-(trifluoromethyl)phenyl]ethyl}amino)pyrido[2,3-d]pyrimidin-6-yl]pyrrolidin-3-yl}acetamide]
